Data taken from patent US11472838B2, “Inhibitors of blood coagulation factor XIII” (Zedira GmbH, priority 2018, dated 2022).
Like-named read-outs stand apart in the source and are kept apart here. *1 amine or outer side, *2 acyl side, *3 side chain or, on linkers, in order; H or OH if unused. Where a SMILES comes first, the peptide text is derived from it. [ ]: non-standard residue; d: D form. The star is where a group is joined. ξ: configuration not given here. Benzoyl(2-COOH,5-NO2) = O=C(O)c1ccc([N+](=O)[O-])cc1C(=O)*; Nle(5E-ene,6-CO2Et) = CCOC(=O)/C=C/CC[C@H](N)C(=O)O; X1 = COC(=O)/C=C/CC[C@H](N[*:1])C(=O)[*:2]; Pro(4-methylene) = C=C1CN[C@H](C(=O)O)C1; X2 = O=C(O)c1cc([N+](=O)[O-])ccc1C(=O)*; Thiophene2carbonyl = O=C(c1cccs1)*; Ala(cPr) = N[C@@H](CC1CC1)C(=O)O; Thr(3ξ) = CC(O)[C@H](N)C(=O)O; Chg = N[C@H](C(=O)O)C1CCCCC1; Tle = CC(C)(C)[C@H](N)C(=O)O; Pip = O=C(O)[C@@H]1CCCCN1; NHIsopentyl = CC(C)CCN*; Cbz = O=C(OCc1ccccc1)*

Tests used:
[1] = Stability of compounds in plasma (HPLC)
Experimental: Further, the stability of compounds in plasma was determined as prerequisite for drug-likeness. Briefly, after spiking the chemical entities, the plasma was incubated at 37° C. At certain time points (e.g. at 15 and 120 minutes), 3 vol. cold MeOH were added to extract the compounds. After centrifugation, the supernatant was analyzed by HPLC. The half life was calculated based on the respective calibration curve.

TG2 = TG2 (Homo sapiens (Human), UniProt P21980); test: Inhibitory activity against TG2 (isopeptidase assay), Tables 3 and 4; type: biochemical; settings: for Selectivity: TG2 versus FXIII
TG2, sequence (P21980 whole entry): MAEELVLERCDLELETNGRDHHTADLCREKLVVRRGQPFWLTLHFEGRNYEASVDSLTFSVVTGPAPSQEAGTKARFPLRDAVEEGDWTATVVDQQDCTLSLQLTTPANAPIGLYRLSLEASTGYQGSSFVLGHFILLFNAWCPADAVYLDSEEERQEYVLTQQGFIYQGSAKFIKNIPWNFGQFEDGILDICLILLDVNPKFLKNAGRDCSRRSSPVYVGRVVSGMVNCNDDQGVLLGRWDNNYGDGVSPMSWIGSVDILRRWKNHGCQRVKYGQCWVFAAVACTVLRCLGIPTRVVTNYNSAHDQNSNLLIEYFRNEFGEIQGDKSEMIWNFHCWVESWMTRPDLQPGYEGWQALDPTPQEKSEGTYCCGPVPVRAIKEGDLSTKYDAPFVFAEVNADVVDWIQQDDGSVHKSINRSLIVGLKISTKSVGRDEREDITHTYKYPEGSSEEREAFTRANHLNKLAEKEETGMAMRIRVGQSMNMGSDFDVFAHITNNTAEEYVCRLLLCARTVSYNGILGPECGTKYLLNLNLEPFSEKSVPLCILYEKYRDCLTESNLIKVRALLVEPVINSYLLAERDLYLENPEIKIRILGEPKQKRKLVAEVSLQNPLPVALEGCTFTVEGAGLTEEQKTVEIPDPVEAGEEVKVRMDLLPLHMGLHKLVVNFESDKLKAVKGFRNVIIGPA

FXIII = FXIII (Homo sapiens (Human), UniProt P00488); test: Inhibitory activity against FXIII (isopeptidase assay), Tables 3 and 4; type: biochemical;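 also: FXIIIa activity read with a peptide substrate derived from the α2-antiplasmin N-terminal dodecapeptide, FXIII activated beforehand at room temperature, inhibitor-free wells with DMSO buffer as control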
FXIII, sequence (P00488 39-732): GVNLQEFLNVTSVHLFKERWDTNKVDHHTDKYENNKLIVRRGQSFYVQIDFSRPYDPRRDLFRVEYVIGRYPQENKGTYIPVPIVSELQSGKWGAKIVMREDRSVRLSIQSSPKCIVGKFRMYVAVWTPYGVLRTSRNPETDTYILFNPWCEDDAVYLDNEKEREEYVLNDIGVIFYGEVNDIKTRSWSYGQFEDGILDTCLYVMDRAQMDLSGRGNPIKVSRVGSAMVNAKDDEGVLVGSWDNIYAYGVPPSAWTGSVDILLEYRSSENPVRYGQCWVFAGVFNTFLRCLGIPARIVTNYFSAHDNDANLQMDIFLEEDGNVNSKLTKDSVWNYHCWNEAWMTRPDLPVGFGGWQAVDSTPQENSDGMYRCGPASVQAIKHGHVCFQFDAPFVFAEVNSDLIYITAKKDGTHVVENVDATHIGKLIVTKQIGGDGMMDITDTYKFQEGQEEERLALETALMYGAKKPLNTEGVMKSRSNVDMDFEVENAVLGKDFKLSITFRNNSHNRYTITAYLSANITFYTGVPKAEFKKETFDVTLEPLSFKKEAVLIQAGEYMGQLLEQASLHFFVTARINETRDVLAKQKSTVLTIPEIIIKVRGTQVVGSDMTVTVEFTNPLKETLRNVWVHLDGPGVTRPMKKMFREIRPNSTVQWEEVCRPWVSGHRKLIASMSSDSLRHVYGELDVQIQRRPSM

SMILES	IC50 (TG2; isopeptidase assay, Table 3, read-out: IC50 [nM] TG2) [nM]	IC50 (FXIII; isopeptidase assay, Table 3, read-out: IC50 [nM] FXIII) [nM]	Selectivity (TG2; Table 4)	IC50 (TG2; Table 4, read-out: TG2 IC50) [nM]	IC50 (FXIII; Table 4, read-out: FXIII IC50) [nM]	recovery at 2 h [1] [%]
CCOC(=O)/C=C/CC[C@H](NC(=O)c1cccs1)C(=O)N[C@@H](CC1CC1)C(=O)N1CCC[C@H]1C(=O)N[C@@H](CC(C)C)C(=O)N[C@H](C(N)=O)C1CCCCC1 [Compound 41] (Thiophene2carbonyl-[Nle(5E-ene,6-CO2Et)][Ala(cPr)]PL[Chg]-NH2)	–	–	–	–	–	> 75
C=C1C[C@@H](C(=O)N[C@@H](CC(C)C)C(=O)N[C@H](C(N)=O)C2CCCCC2)N(C(=O)[C@@H](NC(=O)[C@H](CC/C=C/C(=O)OCC)NC(=O)c2ccc([N+](=O)[O-])cc2C(=O)O)C(C)(C)C)C1 [Compound 42a] (X2-[Nle(5E-ene,6-CO2Et)][Tle][Pro(4-methylene)]L[Chg]-NH2)	–	–	–	–	–	> 75
C=C1C[C@@H](C(=O)N[C@@H](CC(C)C)C(=O)N[C@H](C(N)=O)C2CCCCC2)N(C(=O)[C@@H](NC(=O)[C@H](CC/C=C/C(=O)OCC)NC(=O)c2cc([N+](=O)[O-])ccc2C(=O)O)C(C)(C)C)C1 [Compound 42b] ({Benzoyl(2-COOH,5-NO2)}-[Nle(5E-ene,6-CO2Et)][Tle][Pro(4-methylene)]L[Chg]-NH2)	–	–	–	–	–	> 75
CCOC(=O)/C=C/CC[C@H](NC(=O)OCc1ccccc1)C(=O)N[C@H](C(=O)N1CCCC[C@H]1C(=O)N[C@@H](CC(C)C)C(=O)OC)C(C)C [Ref. 6, reference compound] (Cbz-[Nle(5E-ene,6-CO2Et)]V[Pip]L-OMe)	48	> 10000	–	–	–	–
CCOC(=O)/C=C/CC[C@H](NC(=O)OCc1ccccc1)C(=O)N[C@H](C(=O)N1CCC[C@H]1C(=O)N[C@@H](CC(C)C)C(=O)N[C@H](C(N)=O)C1CCCCC1)C(C)C [Ref. 08, reference compound] (Cbz-[Nle(5E-ene,6-CO2Et)]VPL[Chg]-NH2)	–	–	0.01	36	3650	–
CCOC(=O)/C=C/CC[C@H](NC(=O)c1cccs1)C(=O)N[C@@H](CCC(N)=O)C(=O)N1CCC[C@H]1C(=O)N[C@@H](CC(C)C)C(=O)N[C@H](C(N)=O)C1CCCCC1 [Ref. 11, reference compound] (Thiophene2carbonyl-[Nle(5E-ene,6-CO2Et)]QPL[Chg]-NH2)	–	–	0.05	253	5360	–

The next lines start with results.

IC50 (TG2; isopeptidase assay, Table 3, read-out: IC50 [nM] TG2) [nM]	IC50 (FXIII; isopeptidase assay, Table 3, read-out: IC50 [nM] FXIII) [nM]	Selectivity (TG2; Table 4)	IC50 (TG2; Table 4, read-out: TG2 IC50) [nM]	IC50 (FXIII; Table 4, read-out: FXIII IC50) [nM]	SMILES	recovery at 2 h [1] [%]
–	–	–	26	5690	CCOC(=O)/C=C/CC[C@H](NC(=O)OCc1ccccc1)C(=O)N[C@@H](CCC(N)=O)C(=O)N1CCC[C@H]1C(=O)N[C@@H](CC(C)C)C(=O)N[C@H](C(N)=O)C1CCCCC1 [Ref. 09, reference compound] (Cbz-[Nle(5E-ene,6-CO2Et)]QPL[Chg]-NH2)	–
–	–	0.02	176	8180	CCOC(=O)/C=C/CC[C@H](NC(=O)OCc1ccccc1)C(=O)N[C@H](C(=O)N1CCC[C@H]1C(=O)N[C@H](C(=O)NCCC(C)C)C1CCCCC1)C(C)C [Ref. 10, reference compound] (Cbz-[Nle(5E-ene,6-CO2Et)]VP[Chg]-NHIsopentyl)	–
–	–	0.05	345	6770	CCOC(=O)/C=C/CC[C@H](NC(=O)OCc1ccccc1)C(=O)N[C@H](C(=O)N1CCC[C@H]1C(=O)N[C@@H](CC(C)C)C(=O)N[C@H](C(N)=O)C1CCCCC1)C1CCCCC1 [Ref. 12, reference compound] (Cbz-[Nle(5E-ene,6-CO2Et)][Chg]PL[Chg]-NH2)	–
–	–	0.07	370	4980	COC(=O)/C=C/CC[C@H](NC(=O)[C@H](CC(N)=O)NC(C)=O)C(=O)N[C@@H](CCC(=O)O)C(=O)N[C@@H](CCC(N)=O)C(=O)N[C@H](C(=O)N[C@@H](CO)C(=O)N1CCC[C@H]1C(=O)N[C@@H](CC(C)C)C(=O)N[C@H](C(=O)N[C@@H](CC(C)C)C(=O)O)C(C)O)C(C)C (stereo partly drawn) [Ref. 19, reference compound] (Ac-N[X1]EQVSPL[Thr(3ξ)]L-OH)	–
–	–	0.04	381	8480	COC(=O)/C=C/CC[C@H](NC(=O)[C@H](CC(N)=O)NC(C)=O)C(=O)N[C@@H](CCC(=O)O)C(=O)N[C@@H](CCC(N)=O)C(=O)N[C@H](C(=O)N[C@@H](CO)C(=O)N1CCC[C@H]1C(=O)N[C@@H](CC(C)C)C(=O)N[C@H](C(=O)O)C(C)O)C(C)C (stereo partly shown) [Ref. 20, reference compound] (Ac-N[X1]EQVSPL[Thr(3ξ)]-OH)	–
–	–	–	421	> 10	COC(=O)/C=C/CC[C@H](NC(=O)[C@H](CC(N)=O)NC(C)=O)C(=O)N[C@@H](CCC(=O)O)C(=O)N[C@@H](CCC(N)=O)C(=O)N[C@H](C(=O)N[C@@H](CO)C(=O)N1CCC[C@H]1C(=O)N[C@@H](CC(C)C)C(=O)O)C(C)C [Ref. 21, reference compound] (Ac-N[X1]EQVSPL-OH)	–
–	–	–	–	> 10	CCC(CC)CNC(=O)Cn1cccc(NC(=O)[C@H](CC/C=C/C(=O)OC)NC(=O)c2cncn2C)c1=O [Ref. 25]	–
